Experiments:
[1] = system: mouse melanoma cell line B16F10; assay: B3Z SL8-specific T-cell activation assay, B16F10; format: cell-based; settings: B16F10, Globin-intron-SL8; 15 μM or 35 μM
Method: B3Z SL8-specific T-cell activation after co-culture with (A) human melanoma A375, human lung carcinoma A549 or normal human lung fibroblast MRC5 cell lines, all transiently expressing the intron-derived SL8 peptide and the H2-K^b molecules and treated upstream with 2,5 μM or 6,25 μM isoginkgetin for 18 hours; or with (B) mouse sarcoma MCA205 or mouse melanoma B16F10 cell lines both transiently expressing the intron-derived SL8 peptide and treated upstream with 6,25 μM, 15 μM or 25 μM isoginkgetin for 18 hours. […]
Data are given as mean ±SEM. *P<0.05, **P<0.01, ***P<0.001 (unpaired student t test). […] Tumor size was assessed every 3 to 4 days until reaching the established ethical endpoints. […]
MCA205 and B16F10 mouse cell lines are transfected with the plasmid YFP-Globin-SL8-intron or with the PCDNA3 empty plasmid (negative control) with the transfection reagent jetPRIME (Ozyme) or GeneJuice (Millipore) respectively according to each manufacturer protocol. […] Finally, the β-galactosidase activity is measured using the FLUOstar OPTIMA (BMG LABTECH Gmbh, Offenburg, Germany). Results are expressed as mean ±SEM. *P<0.05, **P<0.01, ***P<0.001 (unpaired student t test).

[2] = system: MCA205 WT tumors; assay: Tumor challenge, MCA205 WT in immunodeficient Nu/Nu nude mice; format: in vivo, mouse; settings: 18 mg/kg intraperitoneally, days 5, 10 and 15
Method: (A) Experimental settings. Growth of (B) sarcoma MCA205 or (C) melanoma B16F10 cells that both stably express the globin-SL8-intron construct or (D) MCA205 Wild Type (WT) or (E) B16F10 WT cells that were subcutaneously inoculated on the flank of immunocompetent C57BL/6 mice injected intraperitoneally with 12 mg/kg or 18 mg/kg of isoginkgetin at days 5, 10 and 15 after inoculation. Tumor size was assessed every 3 to 4 days until reaching the established ethical endpoints. Each line represents the tumor size in area (mm^2) of 6 mice in each group. Size in area (mm^2) of (F) MCA205 globin-SL8-intron, (G) B16F10 globin-SL8-intron, (H) MCA205 WT or (I) B16F10 WT tumors subcutaneously inoculated on the flank of immunodeficient Nu/Nu Nude mice injected intraperitoneally with 18 mg/kg of isoginkgetin at days 5, 10 and 15 after inoculation. Data are presented at the day before the endpoints are reached.
Each line represents the tumor size in area (mm^2) of at least 6 mice in each group. The C right panel represents the tumor size at day 27. […]
Inventors then assessed the requirement of the immune response for isoginkgetin to reduce tumor growth Immunodeficient Nu/Nu nude mice were inoculated subcutaneously with either MCA205 or B16F10 cells that stably express the Globin-intron-SL8 or WT, and were treated with the same settings as previously described (FIG. 9A). […]

[3] = MTT assay on A549 cell line; format: cell-based; settings: human, A549 lung carcinoma cells, read-out: % cell viability (±SEM)
Method: MCA205 mouse sarcoma cell line is cultured at 37° C. under 5% CO2 in RPMI 1640 medium (Life Technologies) in the presence of 1% glutamine, 1% sodium pyruvate, 1% non-essential amino-acids, 1% penicillin/streptomycin and 10% FBS (Life Technologies) under standard conditions. B16F10 mouse melanoma cell line, MRC5 human fibroblast cell line and A375 human melanoma cell line are cultured at 37° C. under 5% CO2 in DMEM medium (Life Technologies) containing 1% glutamine, 1% penicillin/streptomycin and 10% FCS under standard conditions. A549 human lung carcinoma cell line is cultured at 37° C. under 5% CO2 in DMEM/F12+Glutamax I in the presence of 1% Hepes, 1% sodium pyruvate and 10% FBS under standard conditions. Stable MCA205-Globin-SL8-intron cell line are cultured under the same condition as MCA205 cell line with additional 2 mg/ml G418 (geneticin from Life Technologies) for selection. Stable B16F10-Globin-SL8-intron cell line are cultured under the same condition as B16F10 cell line with additional 2 mg/ml G418 (geneticin from Life Technologies) for selection. The SL8/Kb-specific (B3Z) T-cell reporter hybridoma are cultured at 37° C. under 5% CO2 in RPMI 1640 medium (Life Technologies) in the presence of 1% glutamine, 0.1% β-galactosidase, 1% penicillin/streptomycin and 10% FCS under standard conditions. […]

For `COc1ccc(-c2cc(=O)c3c(OC)cc(OP(=O)([O-])[O-])c(-c4cc(-c5cc(=O)c6c(OC)cc(OP(=O)([O-])[O-])cc6o5)ccc4OC)c3o2)cc1.[Na+].[Na+].[Na+].[Na+]` [IM2P2], the “intron-SL8-derived antigen presentation (B3Z activation)” value [1] was “does not impact it”.
For `COc1ccc(-c2cc(=O)c3c(O)cc(O)c(-c4cc(-c5cc(=O)c6c(O)cc(O)cc6o5)ccc4OC)c3o2)cc1` [Isoginkgetin, isoginkgetin], the tumor growth [2] was “No effect”, the viability at 2.5 µM ([3]; A549, 2.5 μM) was 100% and the viability at 6.25 µM ([3]; A549, 6.25 μM) was 84%.

From patent US11110105B2, “Compounds, composition and uses thereof for treating cancer” (INSTITUT GUSTAVE ROUSSY, priority 2017, dated 2021)
